From patent US20240158385A1, “NOVEL COMPOUNDS” (Cerevance, Inc., priority 2021, published 2024)
Read-outs that look alike come from different tables or passages of the source.

Legend:
[1] = test system: IL-1β, mouse primary microglia; test: Inflammasome assay in primary mouse postnatal microglia using LPS/0 mM extracellular K+ (IL-1β levels); type: cell-based; conditions: 100 ng/mL LPS 3.5 hours, compound 30 minutes, then K+ free buffer 2 hours, IL-1β by MesoScale Discovery
Method: Newly shaken mouse microglia cells were added to a 96-well plate and left to adhere overnight. After this time, 100 ng/mL LPS was added to each well and incubated at 37° C. for 3.5 hours, at which point compound addition was undertaken and plates incubated at 37° C. for an additional 30 minutes. After this time, the medium in each well was removed and replaced with K^+ free buffer and the plates then incubated for an additional 2 hours at 37° C. Measurement of IL-1βlevels in the sample wells was undertaken using MesoScale Discovery™ MESO QuickPlex SQ 120 and […] from mouse IL-1β DuoSet ELISA kit (R&D System, DY401).

[2] = molecular target: T1, human KCNK13 (Homo sapiens, UniProt Q9HB14); test: KCNK13 antagonist activity, thallium (Tl+) flux FLIPR assay; type: cell-based
T1 construct: expressed in transfected cells
T1 sequence (Q9HB14 1-408): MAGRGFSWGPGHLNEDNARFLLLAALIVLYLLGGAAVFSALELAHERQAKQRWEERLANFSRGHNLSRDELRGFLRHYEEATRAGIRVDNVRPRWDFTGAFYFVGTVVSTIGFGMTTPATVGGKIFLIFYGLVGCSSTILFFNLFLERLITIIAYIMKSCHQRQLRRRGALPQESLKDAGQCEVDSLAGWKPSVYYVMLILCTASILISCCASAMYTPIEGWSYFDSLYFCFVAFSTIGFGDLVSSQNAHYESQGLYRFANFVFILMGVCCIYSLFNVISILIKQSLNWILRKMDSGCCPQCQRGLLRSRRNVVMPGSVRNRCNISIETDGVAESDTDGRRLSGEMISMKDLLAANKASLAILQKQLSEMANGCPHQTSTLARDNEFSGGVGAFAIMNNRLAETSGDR
Procedure, shortened: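 HEK 293 cells stably expressing human KCNK13 loaded with Tl+-sensitive dye for 1 h at room temperature. Compounds (10-point half-log curves) preincubated 15 min before thallium sulfate stimulus, fluorescence tracked by FLIPR. IC50 from ten-point curves, each point the mean of two wells.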

[3] = HEK 293 cells stably expressing human KCNK13, Tl+ sensitive dye, FLIPR, compounds 15 minutes prior to thallium sulfate, 10 point half log curves from 10 PM, read-out: hKCNK13 IC50

| SMILES | IC50 [1] [nM] | IC50 [2, 3] [nM] | IC50 [2] [nM] |
| --- | --- | --- | --- |
| Nc1nonc1-c1nc2cccc(F)c2n1Cc1cccnc1 (single isomer, unassigned) [Example 86, 4-[7-fluoro-1-(pyridin-3-ylmethyl)benzimidazol-2-yl]-1,2,5-oxadiazol-3-amine] | ≤ 50 | < 50 | – |
| Nc1nonc1-c1nc2cccc(F)c2n1Cc1ccncc1 (single isomer, unassigned) [Example 120, 4-[7-fluoro-1-(pyridin-4-ylmethyl)benzimidazol-2-yl]-1,2,5-oxadiazol-3-amine] | ≤ 50 | < 50 | – |
| Nc1nonc1-c1nc2ccccc2n1Cc1cncnc1 [Example 21, 4-[1-(pyrimidin-5-ylmethyl)benzimidazol-2-yl]-1,2,5-oxadiazol-3-amine] | ≤ 100 | – | < 50 |
| Nc1nonc1-c1nc2cccc(F)c2n1Cc1cnccn1 [Example 32, 4-[7-fluoro-1-(pyrazin-2-ylmethyl)benzimidazol-2-yl]-1,2,5-oxadiazol-3-amine] | ≤ 200 | < 50 | – |
| Cc1nonc1-c1nc2cccc(F)c2n1Cc1cncnc1 [Example 49, 3-[7-fluoro-1-(pyrimidin-5-ylmethyl)benzimidazol-2-yl]-4-methyl-1,2,5-oxadiazole] | ≤ 50 | < 100 | – |
| Cc1nonc1-c1nc2ccccc2n1Cc1cncnc1 [Example 57, 3-methyl-4-[1-(pyrimidin-5-ylmethyl)benzimidazol-2-yl]-1,2,5-oxadiazole] | ≤ 200 | < 100 | – |
| Nc1nonc1-c1nc2ccccc2n1Cc1ccncc1 [Example 71, 4-[1-(pyridin-4-ylmethyl)benzimidazol-2-yl]-1,2,5-oxadiazol-3-amine] | ≤ 200 | < 100 | – |
| Nc1nonc1-c1nc2c(F)ccc(F)c2n1Cc1ccncc1 [Example 155, 4-(4,7-difluoro-1-(pyridin-4-ylmethyl)-benzimidazol-2-yl)-1,2,5-oxadiazol-3-amine] | – | < 50 | – |
| Nc1nocc1-c1nc2cccc(F)c2n1Cc1cccnn1 [Example 158, 4-(7-fluoro-1-(pyridazin-3-ylmethyl)-benzimidazol-2-yl)isoxazol-3-amine] | – | < 5000 | – |
| Nc1nonc1-c1nc2ncc(F)cc2n1Cc1ccc(Cl)nc1 [Example 159, 4-(1-((6-chloropyridin-3-yl)methyl)-6-fluoro-1H-imidazo[4,5-b]pyridin-2-yl)-1,2,5-oxadiazol-3-amine] | – | – | < 50 |
| Nc1nonc1-c1nc2ncc(F)cc2n1Cc1cncnc1 [Example 160, 4-(6-fluoro-1-(pyrimidin-5-ylmethyl)-1H-imidazo[4,5-b]pyridin-2-yl)-1,2,5-oxadiazol-3-amine] | – | < 500 | – |
| C[C@@H](c1cccnc1)n1c(-c2nonc2N)nc2cccc(F)c21 [Example 161, (S)-4-(7-fluoro-1-(1-(pyridin-3-yl)ethyl)-benzimidazol-2-yl)-1,2,5-oxadiazol-3-amine] | – | < 1000 | – |
| CNS(=O)(=O)c1ccc(Cn2c(-c3nonc3C)nc3ccccc32)cn1 [Example 164, N-methyl-5-((2-(4-methyl-1,2,5-oxadiazol-3-yl)-benzimidazol-1-yl)methyl)pyridine-2-sulfonamide] | – | < 1000 | – |
| Cc1nonc1-c1nc2cccnc2n1Cc1cnc(C#N)nc1 [Example 165, 5-((2-(4-methyl-1,2,5-oxadiazol-3-yl)-3H-imidazo[4,5-b]pyridin-3-yl)methyl)pyrimidine-2-carbonitrile] | – | < 100 | – |
| Nc1nonc1-c1nc2cccc(F)c2n1Cc1ccc(OC(F)(F)F)nc1 [Example 176, 4-(7-fluoro-1-((6-(trifluoromethoxy)pyridin-3-yl)methyl)-benzimidazol-2-yl)-1,2,5-oxadiazol-3-amine] | – | < 5000 | – |
| N#Cc1ccc(Cn2c(-c3nonc3N)nc3cccnc32)nn1 [Example 177, 6-((2-(4-amino-1,2,5-oxadiazol-3-yl)-3H-imidazo[4,5-b]pyridin-3-yl)methyl)pyridazine-3-carbonitrile] | – | < 1000 | – |
| CNc1nonc1-c1nc2cccc(F)c2n1Cc1cccnn1 [Example 178, 4-(7-fluoro-1-(pyridazin-3-ylmethyl)-benzimidazol-2-yl)-N-methyl-1,2,5-oxadiazol-3-amine] | – | < 5000 | – |
| Nc1nonc1-c1nc2c(F)cccc2n1Cc1cccnn1 [Example 179, 4-(4-fluoro-1-(pyridazin-3-ylmethyl)-benzimidazol-2-yl)-1,2,5-oxadiazol-3-amine] | – | < 200 | – |
| CCS(=O)(=O)c1ccc(Cn2c(-c3nonc3C)nc3ccccc32)cn1 [Example 180, 3-(1-((6-(ethylsulfonyl)pyridin-3-yl)methyl)-benzimidazol-2-yl)-4-methyl-1,2,5-oxadiazole] | – | < 500 | – |
| CSc1ccc(Cn2c(-c3nonc3C)nc3ccccc32)cn1 [Example 181, 3-methyl-4-(1-((6-(methylthio)pyridin-3-yl)methyl)-benzimidazol-2-yl)-1,2,5-oxadiazole] | – | < 500 | – |
| Cc1conc1-c1nc2cccc(F)c2n1Cc1cccnn1 [Example 182, 3-(7-fluoro-1-(pyridazin-3-ylmethyl)-benzimidazol-2-yl)-4-methylisoxazole] | – | < 200 | – |
| Cc1nonc1-c1nc2c(F)ccc(F)c2n1Cc1cccnn1 [Example 185, 3-(4,7-difluoro-1-(pyridazin-3-ylmethyl)-benzimidazol-2-yl)-4-methyl-1,2,5-oxadiazole] | – | < 50 | – |
| Nc1conc1-c1nc2cccc(F)c2n1Cc1cccnn1 [Example 186, 3-(7-fluoro-1-(pyridazin-3-ylmethyl)-benzimidazol-2-yl)isoxazol-4-amine] | – | < 500 | – |
